# Values of other authors as cited in paper PMC10712729, “A Phase I Trial of the Dual MET Kinase/OCT-2 Inhibitor OMO-1 in Metastatic Solid Malignancies Including MET Exon 14 Mutated Lung Cancer” (The Oncologist, 2023).
# How the values were obtained:
# [1] = in vivo; cited from earlier work
# [2] = tested on: METex14 mutated NSCLC; set-up: method as in PMID 32469185, PMID 32877583; conditions: METex14 mutated NSCLC ref 9, 10; cited from earlier work
# [3] = set-up: method as in PMID 32469185, PMID 32877583; conditions: cited from earlier work
Compound,renal toxicity [1],median response duration [2] [months],object response rates [2] [%],"diarrhea, all grades [3] [%]","nausea, all grades [3] [%]","vomiting, all grades [3] [%]"
Cn1cc(-c2ccc3nnc(C(F)(F)c4ccc5ncccc5c4)n3n2)cn1 [JNJ-38877605],renal toxic properties,–,–,–,–,–
CNC(=O)c1ccc(-c2cnc3ncc(Cc4ccc5ncccc5c4)n3n2)cc1F [capmatinib],–,12.6,68,17,46,26
CN1CCC(COc2cnc(-c3cccc(Cn4nc(-c5cccc(C#N)c5)ccc4=O)c3)nc2)CC1 [tepotinib],–,10.8,43,22,26,6
